Patent US20090215805A1, “4-Heteroaryl Pyrimidine Derivatives and use thereof as Protein Kinase Inhibitors” (Cyclacel Limited, priority 2005, published 2009)

How the values were obtained:
[1] = tested on: PEPCK gene expression in HEPG2 cells; test: PEPCK gene expression in HEPG2 cells - QPCR assay; assay type: cell-based; conditions: HEPG2, Dex/cAMP +, percentage of the dexametasone-induced stimulation
Experimental: PEPCK gene expression was studied in HEPG2 (hepatocarcinoma) cells, seeded in 6-well plate at […] cells per well. The cells were serum starved for 20 hours before treatment with dexamethasone/cAMP (stimulator of PEPCK gene expression) in the presence or absence of insulin or GSK3 inhibitors. After 3 hours treatment the cells were harvested, lysed and RNA extracted using mini RNeasy spin column (Quiagen). The primer set COD2063/COD2064 (350 bp) was used for PEPCK gene. The one step RT-PCR was carried out using the Lightcycler-RNA Master SYBR Green 1 Kit. The qPCR analysis calculates the number of the PCR cycles required for the PCR product amplification to reach logarithmic phase. QPCR for a housekeeping gene—28S—was used for normalisation. PEPCK is a key enzyme in gluconeogenesis in the liver and it is known be negatively regulated by insulin via inhibition of GSK3. The effect of GSK3 inhibitors on PEPCK gene expression was studied in HEPG2 (hepatocarcinoma) cells treated with dexametasone/cAMP (a positive regulator of PEPCK gene expression) in the presence or absence of insulin or GSK3 inhibitors.

[2] = target: DM Aur A (Dm AK-A) (Drosophila melanogaster, UniProt Q9VGF9); test: Dm aurora A kinase assay (DM Aur A / Dm AK-A); assay type: biochemical; conditions: for Ki: in vitro kinase assay; for IC50: values without asterisk (DM aurora A)
Sequence of DM Aur A (Dm AK-A) (Q9VGF9 entry or part of it): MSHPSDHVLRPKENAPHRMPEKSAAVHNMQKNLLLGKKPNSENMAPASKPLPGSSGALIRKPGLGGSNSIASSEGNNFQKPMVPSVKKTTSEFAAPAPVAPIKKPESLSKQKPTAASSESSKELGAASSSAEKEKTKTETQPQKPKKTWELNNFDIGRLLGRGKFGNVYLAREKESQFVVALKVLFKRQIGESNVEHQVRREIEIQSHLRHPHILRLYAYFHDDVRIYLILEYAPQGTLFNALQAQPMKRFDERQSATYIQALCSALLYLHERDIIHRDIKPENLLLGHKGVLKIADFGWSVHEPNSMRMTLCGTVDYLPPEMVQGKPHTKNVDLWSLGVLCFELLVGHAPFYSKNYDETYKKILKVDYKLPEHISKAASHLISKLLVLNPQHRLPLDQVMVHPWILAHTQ
Experimental: (§1) The compounds of the invention above were investigated for their ability to inhibit the enzymatic activity of various protein kinases. This was achieved by measurement of incorporation of radioactive phosphate from ATP into appropriate polypeptide substrates. Recombinant protein kinases and kinase complexes were produced or obtained commercially. Assays were performed using 96-well plates and appropriate assay buffers (typically 25 mM β-glycerophosphate, 20 mM MOPS, 5 mM EGTA, 1 mM DTT, 1 mM […], pH 7.4), into which were added 2-4 μg of active enzyme with appropriate substrates. The reactions were initiated by addition of Mg/ATP mix (15 mM MgCl2+100 μM ATP with 30-50 kBq per well of [γ-^32P]-ATP) and mixtures incubated as required at 30° C. Reactions were stopped on ice, followed by filtration through p81 filterplates or GF/C filterplates (Whatman Polyfiltronics, Kent, UK). After washing 3 times with 75 mM aq orthophosphoric acid, plates were dried, scintillant added and incorporated radioactivity measured in a scintillation counter (TopCount, Packard Instruments, Pangbourne, Berks, UK). Compounds for kinase assay were made up as 10 mM stocks in DMSO and diluted into 10% DMSO in assay buffer. Data was analysed using curve-fitting software (GraphPad Prism version 3.00 for Windows, GraphPad Software, San Diego Calif. USA) to determine IC50 values (concentration of test compound which inhibits kinase activity by 50%).

[3] = target: GSK3 (GSK-3β) (Oryctolagus cuniculus, UniProt A0A5F9DUX8); test: GSK-3 kinase assay; assay type: biochemical, rabbit; conditions: in vitro kinase assay
Sequence of GSK3 (GSK-3β) (A0A5F9DUX8 entry or part of it): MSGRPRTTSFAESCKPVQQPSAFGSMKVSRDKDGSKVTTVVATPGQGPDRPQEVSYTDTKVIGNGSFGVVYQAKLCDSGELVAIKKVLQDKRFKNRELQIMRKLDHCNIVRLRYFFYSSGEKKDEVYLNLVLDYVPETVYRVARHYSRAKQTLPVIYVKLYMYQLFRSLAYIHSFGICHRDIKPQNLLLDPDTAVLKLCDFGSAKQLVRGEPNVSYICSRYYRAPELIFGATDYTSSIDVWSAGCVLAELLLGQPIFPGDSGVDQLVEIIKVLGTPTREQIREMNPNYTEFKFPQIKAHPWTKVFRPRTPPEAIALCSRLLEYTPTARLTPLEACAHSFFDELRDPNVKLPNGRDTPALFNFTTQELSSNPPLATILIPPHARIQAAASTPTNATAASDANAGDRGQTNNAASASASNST
Experimental: GSK-3 was obtained from New England Biolabs (UK) Ltd., Hitchin, Herts. The recombinant enzyme was isolated from a strain of E. coli that carries a clone expressing GSK-3β derived from a rabbit skeletal muscle cDNA library [Wang, Q. M.; Fiol, C. J.; DePaoli-Roach, A. A.; Roach, P. J. J. Biol. Chem., 1994, 269, 14566]. Inhibition of GSK-3 function was assessed by measurement of phosphorylation of CREB phosphopeptide KRREILSRRPphosphoSYR in the presence of test compounds. Using a 96-well assay format, GSK3 (7.5 U) was incubated for 30 min at 30° C. in a total volume of 25 μL in 20 mM MOPS pH 7.2, 25 mM β-glycerophosphate, 5 mM EGTA, 1 mM DTT, 1 mM […], 40 μM CREB peptide, 15 mM MgCl2 and 100 μM ATP (containing 0.25 μCi [γ-^32P]-ATP) in the presence of varying concentrations of test compound. The samples were transferred to 96-well p81 filter plates (Whatman Polyfiltronics, Kent, UK), and the plates were washed 4 times with 200 μL/well of 75 mM aq orthophosphoric acid. Scintillation liquid (50 μL) was added to each well, and incorporated radioactivity for each sample was determined using a scintillation counter (TopCount, Packard Instruments, Pangboume, Berks, UK).

[4] = tested on: Glycogen synthase activation in HEK293 cells; test: Glycogen synthase activation in HEK293 cells; assay type: cell-based; conditions: Homo sapiens, 1.5 h, 90 minutes treatment
Experimental: (§2) HEK293 cells, mouse adipocytes or rat myotubes were treated in 10 cm Petri dishes with different concentrations of GSK3 inhibitors for 90 minutes. At the end of the treatment period the cells were washed and scraped in ice cold PBS buffer supplemented with 20 mM NaF. The cells were pelleted by centrifugation and lysed in 300 μl buffer-50 mM HEPES pH 7.5, 10 mM EDTA, 100 mM NaF, 5 mM DTT, protease inhibitor cocktail (Sigma). After incubation for 30 min on ice the samples were cleared by centrifugation. The activity of glycogen synthase was determined in the soluble fraction at two different concentrations of […]-low (0.1 mM) and high (10 mM). The reaction was carried out for 30 min in a buffer—50 mM Tris pH 7.8, 20 mM EDTA, 25 mM NaF, S mM DTT. The reaction mixture (total volume of 90 μl) consisted as well of 1% glycogen, 0.3 mM UDP-glucose and 0.06 μCi ^14C-UDP-glucose. Reaction was stopped by transfer of 70 μl to a GFC 96-well filter plate, containing 140 μl 100% ethanol an the glycogen was allowed to precipitate for 1 h at 4° C. The wells were washed 2 times with 200 μl 66% ethanol and than let to dry. Subsequently, 100 μl of scintillation liquid were added, and plates were sealed and counted in a Packard Topcounter. Glycogen synthase activation was calculated as the ratio between the incorporation of labelled ^14C-UDP-glucose in glycogen at low and high concentration of […] (fractional velocity).

[5] = tested on: Glycogen synthase activation in mouse adipocytes (3T3-L1); test: Glycogen synthase activation in mouse adipocytes (3T3-L1); assay type: cell-based; conditions: 1.5 h; 3T3-L1 mouse adipocytes, 90 minutes treatment
Experimental: 3T3-L1 mouse pre-adipocytes were grown in DMEM supplemented with 10% FCS and pen/strep until fully confluent. Cell differentiation was initiated by the addition of 0.5 mM IBMX (2-isobutyl-1-methylxanthine), 0.25 μM Dexamethasone and 1 μg/ml insulin into the growth media. The differentiation media was replaced after 4 days and 7 days after the initiation of differentiation the cells were grown for additional 3 days in DMEM, 10% FCS and pen/strep.
as §2

[6] = target: CDK2/E (Homo sapiens, UniProt P24941); test: CDK2/E in vitro kinase assay; assay type: biochemical
Experimental: as §1

[7] = tested on: Glycogen synthase activation in rat myotubes (L6.G8.C5); test: Glycogen synthase activation in rat myotubes (L6.G8.C5); assay type: cell-based; conditions: Myotube, 1.5 h, 90 minutes treatment
Experimental: Rat myotubes were differentiated from L6.G8.C5 myoblasts, which were grown in DMEM, 10% FCS and pen/strep until confluent. The media was then removed, cells washed with PBS and differentiation media containing minimal essential media eagles (alpha modified) supplemented with 2% FCS and pen/strep. The cells were cultured for 3-4 days until >90% of cells have formed multinucleated myotubes. The differentiated cells were then used for determination of glycogen synthase activation after treatment with GSK3 inhibitors.
as §2

Row | Compound | % PEPCK activity ([1]; concentration 0.1 uM) | Ki [2] | IC50 [2] | Ki [3] | EC50 [4] | EC50 [5] | Ki [6] | EC50 [7] | % PEPCK activity ([1]; concentration 1 uM) | % PEPCK activity ([1]; concentration 10 uM)
1 | Insulin: insulin, comparator known to negatively regulate PEPCK via inhibition of GSK3 | 67.5 ± 9.0% | – | – | – | – | – | – | – | – | –
2 | CCNS(=O)(=O)c1cccc(Nc2nccc(-c3c(C)[nH]c(C#N)c3C)n2)c1 [Compound 32] | – | 161 nM | 413 nM | 3 nM | 4100 nM | 2100 nM | 377 nM | 5000 nM | – | –
3 | Cc1[nH]c(C#N)c(C)c1-c1ccnc(Nc2ccc(Cl)nc2)n1 [Compound 30] | – | 681 nM | 861 nM | 3 nM | 2200 nM | 4300 nM | 197 nM | 2300 nM | 22.8 ± 12.1% | 16.2 ± 3.8%
4 | COc1ccc(Nc2nccc(-c3c(C)[nH]c(C#N)c3C)n2)cn1 [Compound 28] | – | 177 nM | 453 nM | 5 nM | 6600 nM | 7900 nM | 188 nM | 9000 nM | 48.4 ± 7.3% | 11.7 ± 1.3%
5 | Cc1[nH]c(C#N)c(C)c1-c1ccnc(Nc2ccc(N(C)C)c([N+](=O)[O-])c2)n1 [Compound 18] | – | – | – | 5 nM | 1500 nM | 4120 nM | 119 nM | – | – | –
6 | Cc1[nH]c([N+](=O)[O-])c(C)c1-c1ccnc(Nc2ccc(N(C)C)c([N+](=O)[O-])c2)n1 [Compound 19] | – | – | – | 4 nM | 700 nM | 5600 nM | 41 nM | 6300 nM | 72.9 ± 9.06% | 45.4 ± 1.9%
